ChEMBL document CHEMBL4680171, “Oxadiazolylthiazoles as novel and selective antifungal agents” (Eur J Med Chem, 2020)
≈ marks a conversion by molar mass, not a printed value. Calls of active or inactive are those of the source. No cut-off for these calls is given here.

Key:
[1] = test system: Staphylococcus aureus; assay: Antibacterial activity against methicillin resistant Staphylococcus aureus subsp. aureus USA300 assessed as reduction in bacterial growth by CLSI based broth microdilution method; format: functional
[2] = test system: Escherichia coli; assay: Antibacterial activity against Escherichia coli JW55031 harboring tolC mutation assessed as reduction in bacterial growth by CLSI based broth microdilution method; format: functional
[3] = test system: Escherichia coli; assay: Antibacterial activity against Escherichia coli BW25113 assessed as reduction in bacterial growth by CLSI based broth microdilution method; format: functional
[4] = test system: Clostridioides difficile; assay: Antibacterial activity against Clostridium difficile BAA1870 assessed as reduction in bacterial growth by CLSI based broth microdilution method; format: functional
[5] = test system: Candida albicans; assay: Antifungal activity against Candida albicans SS5314 assessed as reduction in fungal growth by CLSI based broth microdilution method; format: functional
[6] = test system: Candida albicans; assay: Antifungal activity against Candida albicans ATCC 10231 assessed as reduction in fungal growth incubated for 24 hrs by CLSI based broth microdilution method; format: functional
[7] = test system: Candida albicans; assay: Antifungal activity against fluconazole-resistant Candida albicans NR29448 assessed as reduction in fungal growth incubated for 24 hrs by CLSI based broth microdilution method; format: functional
[8] = test system: [Candida] auris; assay: Antifungal activity against fluconazole-resistant Candida auris 381 assessed as reduction in fungal growth incubated for 24 hrs by CLSI based broth microdilution method; format: functional; conditions: Candidozyma auris
[9] = test system: [Candida] auris; assay: Antifungal activity against fluconazole-resistant Candida auris 383 assessed as reduction in fungal growth incubated for 24 hrs by CLSI based broth microdilution method; format: functional; conditions: Candidozyma auris
[10] = test system: [Candida] auris; assay: Antifungal activity against fluconazole-resistant Candida auris 384 assessed as reduction in fungal growth incubated for 24 hrs by CLSI based broth microdilution method; format: functional; conditions: Candidozyma auris
[11] = test system: Nakaseomyces glabratus; assay: Antifungal activity against Candida glabrata ATCC 66032 assessed as reduction in fungal growth incubated for 24 hrs by CLSI based broth microdilution method; format: functional
[12] = test system: Nakaseomyces glabratus; assay: Antifungal activity against Candida glabrata ATCC MYA-2950 assessed as reduction in fungal growth incubated for 24 hrs by CLSI based broth microdilution method; format: functional
[13] = test system: Candida parapsilosis; assay: Antifungal activity against Candida parapsilosis ATCC 22019 assessed as reduction in fungal growth incubated for 24 hrs by CLSI based broth microdilution method; format: functional; conditions: Lodderomyces parapsilosis
[14] = test system: Candida parapsilosis; assay: Antifungal activity against Candida parapsilosis CAB 502638 assessed as reduction in fungal growth incubated for 24 hrs by CLSI based broth microdilution method; format: functional; conditions: Lodderomyces parapsilosis
[15] = test system: Pichia kudriavzevii; assay: Antifungal activity against Candida krusei CAB 396420 assessed as reduction in fungal growth incubated for 24 hrs by CLSI based broth microdilution method; format: functional
[16] = test system: Pichia kudriavzevii; assay: Antifungal activity against Candida krusei ATCC 34135 assessed as reduction in fungal growth incubated for 24 hrs by CLSI based broth microdilution method; format: functional
[17] = test system: Cryptococcus neoformans; assay: Antifungal activity against Cryptococcus neoformans NR41298 assessed as reduction in fungal growth incubated for 48 hrs by CLSI based broth microdilution method; format: functional
[18] = test system: Cryptococcus neoformans; assay: Antifungal activity against Cryptococcus neoformans NR41300 assessed as reduction in fungal growth incubated for 48 hrs by CLSI based broth microdilution method; format: functional
[19] = test system: Cryptococcus neoformans; assay: Antifungal activity against Cryptococcus neoformans NR48770 assessed as reduction in fungal growth incubated for 48 hrs by CLSI based broth microdilution method; format: functional
[20] = test system: Cryptococcus gattii species complex; assay: Antifungal activity against Cryptococcus gattii NR43210 assessed as reduction in fungal growth incubated for 48 hrs by CLSI based broth microdilution method; format: functional, Cryptococcus bacillisporus
[21] = test system: Cryptococcus gattii species complex; assay: Antifungal activity against Cryptococcus gattii NR43209 assessed as reduction in fungal growth incubated for 48 hrs by CLSI based broth microdilution method; format: functional, Cryptococcus bacillisporus
[22] = test system: Lactobacillus gasseri; assay: Antibacterial activity against Lactobacillus gasseri HM-400 assessed as reduction in bacterial growth by CLSI based assay
[23] = test system: Lacticaseibacillus casei; assay: Antibacterial activity against Lactobacillus casei HM-334 assessed as reduction in bacterial growth by CLSI based assay; format: organism-based
[24] = test system: Lactobacillus crispatus; assay: Antibacterial activity against Lactobacillus crispatus HM-370 assessed as reduction in bacterial growth by CLSI based assay
[25] = Cytotoxicity against African green monkey Vero cells assessed as reduction in cell viability incubated for 2 hrs by MTS assay; format: cell-based; conditions: chlorocebus sabaeus
[26] = test system: Candida albicans; assay: Fungicidal activity against Candida albicans SS5314 assessed as eradication of fungal count at 5XMIC measured after 2 hrs by time kill assay relative to control; format: functional
[27] = test system: Vero; assay: Cytotoxicity against African green monkey Vero cells assessed as reduction in cell viability at 16 ug/ml incubated for 2 hrs by MTS assay; format: cell-based; conditions: chlorocebus sabaeus, dose 16 µg/ml
[28] = test system: Candida albicans; assay: Antifungal activity against Candida albicans SS5314 assessed as reduction in fungal growth incubated for 24 hrs by CLSI based broth microdilution method; format: functional
[29] = test system: Aspergillus fumigatus; assay: Antifungal activity against Aspergillus fumigatus NR 35303 assessed as reduction in fungal growth incubated for 24 hrs by CLSI based broth microdilution method; format: functional
[30] = test system: Aspergillus fumigatus; assay: Antifungal activity against Aspergillus fumigatus NR 35304 assessed as reduction in fungal growth incubated for 24 hrs by CLSI based broth microdilution method; format: functional
[31] = test system: Candida albicans; assay: Antibiofilm activity against Candida albicans NR29448 assessed as reduction in biofilm formation at 0.5XMIC incubated for 24 hrs by crystal violet staining based assay relative to control; format: functional
[32] = test system: Candida albicans; assay: Antibiofilm activity against 24 hrs preformed biofilm of Candida albicans NR29448 assessed as disruption of mature biofilm at 64 ug/ml incubated for 24 hrs by crystal violet staining based spectrophotometry relative to control; format: functional; conditions: dose 64.0 µg/ml
[33] = test system: Candida albicans; assay: Fungistatic activity against Candida albicans SS5314 at 5 to 10x MIC measured for 36 hrs by time kill assay; format: functional, organism-based
[34] = test system: Candida albicans; assay: Antifungal activity against Candida albicans SS5314 assessed as reduction in fungal growth measured after 10 passages by CLSI based broth microdilution method; format: functional, organism-based

Cc1nc(-c2ccc(C(C)(C)C)cc2)sc1-c1nnc(NCCCN)o1
MIC [1]: > 64 µg/mL | MIC [2]: > 64 µg/mL | MIC [3]: > 64 µg/mL | MIC [4]: 64 µg/mL (≈ 172 µM) | MIC [5]: 16 µg/mL (≈ 43.1 µM)

Cc1nc(-c2ccc(C(C)(C)C)cc2)sc1-c1nnc(N2CCC[C@@H]2C(N)=O)o1
MIC [1]: > 64 µg/mL | MIC [2]: > 64 µg/mL | MIC [3]: > 64 µg/mL | MIC [4]: 32 µg/mL (≈ 77.8 µM) | MIC [5]: > 64 µg/mL

Cc1nc(-c2ccc(C(C)(C)C)cc2)sc1-c1nnc(N2CCC[C@H]2C(N)=O)o1
MIC [1]: > 64 µg/mL | MIC [2]: 64 µg/mL (≈ 156 µM) | MIC [3]: > 64 µg/mL | MIC [4]: 32 µg/mL (≈ 77.8 µM) | MIC [5]: > 64 µg/mL

Cc1nc(-c2ccc(C(C)(C)C)cc2)sc1-c1nnc(NC[C@@H](O)CO)o1
MIC [1]: > 64 µg/mL | MIC [2]: > 64 µg/mL | MIC [3]: > 64 µg/mL | MIC [4]: 32 µg/mL (≈ 82.4 µM) | MIC [5]: > 64 µg/mL

Cc1nc(-c2ccc(C(C)(C)C)cc2)sc1-c1nnc(NCC(O)CO)o1 (centres undefined)
MIC [1]: > 64 µg/mL | MIC [2]: > 64 µg/mL | MIC [3]: > 64 µg/mL | MIC [4]: 32 µg/mL (≈ 82.4 µM) | MIC [5]: > 64 µg/mL

Cc1nc(-c2ccc(C(C)(C)C)cc2)sc1-c1nnc(NCC2CCCCN2)o1 (centres undefined)
MIC [1]: 32 µg/mL (≈ 77.8 µM) | MIC [2]: 16 µg/mL (≈ 38.9 µM) | MIC [3]: > 64 µg/mL | MIC [4]: 16 µg/mL (≈ 38.9 µM) | MIC [5]: > 64 µg/mL

Cc1nc(-c2ccc(C(C)(C)C)cc2)sc1-c1nnc(N2CCC[C@@H]2CO)o1
MIC [1]: > 64 µg/mL | MIC [2]: > 64 µg/mL | MIC [3]: > 64 µg/mL | MIC [4]: 32 µg/mL (≈ 80.3 µM) | MIC [5]: > 64 µg/mL

Cc1nc(-c2ccc(C(C)(C)C)cc2)sc1-c1nnc(N[C@@H]2CCCC[C@H]2N)o1 (relative stereo)
MIC [1]: 64 µg/mL (≈ 156 µM) | MIC [2]: > 64 µg/mL | MIC [3]: > 64 µg/mL | MIC [4]: 16 µg/mL (≈ 38.9 µM) | MIC [5]: 64 µg/mL (≈ 156 µM)

C[C@@H]1[C@H](O)[C@@H](C)/C=C/C=C/C=C/C=C/C=C/C=C/C=C/[C@H](O[C@@H]2O[C@H](C)[C@@H](O)[C@H](N)[C@@H]2O)C[C@@H]2O[C@](O)(C[C@@H](O)C[C@@H](O)[C@H](O)CC[C@@H](O)C[C@@H](O)CC(=O)O[C@H]1C)C[C@H](O)[C@H]2C(=O)O [AMPHOTERICIN B]
MIC [5]: 1 µg/mL (≈ 1.08 µM) | MIC [6]: 1 µg/mL (≈ 1.08 µM) | MIC [7]: 1 µg/mL (≈ 1.08 µM) | MIC [8]: 0.5 µg/mL (≈ 0.541 µM) | MIC [9]: 1 µg/mL (≈ 1.08 µM) | MIC [10]: 2 µg/mL (≈ 2.16 µM) | MIC [11]: 2 µg/mL (≈ 2.16 µM) | MIC [12]: 1 µg/mL (≈ 1.08 µM) | MIC [13]: 0.5 µg/mL (≈ 0.541 µM) | MIC [14]: 0.5 µg/mL (≈ 0.541 µM) | MIC [15]: 2 µg/mL (≈ 2.16 µM) | MIC [16]: 2 µg/mL (≈ 2.16 µM) | MIC [17]: 1 µg/mL (≈ 1.08 µM) | MIC [18]: 1 µg/mL (≈ 1.08 µM) | MIC [19]: 1 µg/mL (≈ 1.08 µM) | MIC [20]: 1 µg/mL (≈ 1.08 µM) | MIC [21]: 1 µg/mL (≈ 1.08 µM) | MIC [22]: > 128 µg/mL | MIC [23]: > 128 µg/mL | MIC [24]: > 128 µg/mL | CC50 at 2 h [25]: 8 µg/mL (≈ 8.66 µM) | Activity [26]: 100% | Activity [27]: Toxic | MIC [28]: 1 µg/mL (≈ 1.08 µM)

OC(Cn1cncn1)(Cn1cncn1)c1ccc(F)cc1F [FLUCONAZOLE]
MIC [5]: > 64 µg/mL | MIC [6]: 1 µg/mL (≈ 3.27 µM) | MIC [7]: > 128 µg/mL | MIC [8]: 2 µg/mL (≈ 6.53 µM) | MIC [9]: 128 µg/mL (≈ 418 µM) | MIC [10]: > 128 µg/mL | MIC [11]: 8 µg/mL (≈ 26.1 µM) | MIC [12]: 16 µg/mL (≈ 52.2 µM) | MIC [13]: 1 µg/mL (≈ 3.27 µM) | MIC [14]: 0.5 µg/mL (≈ 1.63 µM) | MIC [15]: 16 µg/mL (≈ 52.2 µM) | MIC [16]: 16 µg/mL (≈ 52.2 µM) | MIC [17]: 2 µg/mL (≈ 6.53 µM) | MIC [18]: 1 µg/mL (≈ 3.27 µM) | MIC [19]: 2 µg/mL (≈ 6.53 µM) | MIC [20]: 4 µg/mL (≈ 13.1 µM) | MIC [21]: 4 µg/mL (≈ 13.1 µM) | MIC [29]: > 64 µg/mL | MIC [30]: > 64 µg/mL | MIC [22]: > 128 µg/mL | MIC [23]: > 128 µg/mL | MIC [24]: > 128 µg/mL | inhibition (INH) [31]: 50% | Activity [32]: inactive | Activity [33]: Active | Activity [34]: Active | MIC [28]: 1 µg/mL (≈ 3.27 µM)

CCC(C)n1ncn(-c2ccc(N3CCN(c4ccc(OCC5COC(Cn6cncn6)(c6ccc(Cl)cc6Cl)O5)cc4)CC3)cc2)c1=O (centres undefined) [ITRACONAZOLE]
MIC [29]: 1 µg/mL (≈ 1.42 µM) | MIC [30]: 1 µg/mL (≈ 1.42 µM)

CC(=O)NC[C@H]1CN(c2ccc(N3CCOCC3)c(F)c2)C(=O)O1 [LINEZOLID]
MIC [1]: 1 µg/mL (≈ 2.96 µM) | MIC [2]: 8 µg/mL (≈ 23.7 µM) | MIC [3]: > 64 µg/mL | MIC [4]: 1 µg/mL (≈ 2.96 µM)

GENTAMICIN
MIC [2]: < 0.5 µg/mL | MIC [3]: < 0.5 µg/mL
